The source of these data is patent US6710084B2, “Inhibition of TNFα-initiated neutrophil response” (Brigham and Women's Hospital, priority 1999, dated 2004).

Bounds are passed on as bounds.

Test [1] has as its system IL-1β. Put plainly: TNFα-induced IL-1β release by human PMN. In kind it is cell-based. As to conditions: for inhibition of IL-1β release: 100 nM compound, human PMN. An excerpt: Supernatants were collected, and IL-1β was quantitated by ELISA. Results are expressed as mean±SD of duplicates, and are from one experiment representative of n=3. […] Values represent the mean ±SEM, n=3. At all time intervals tested, TNFα induced a significant appearance of IL-1β over vehicle-treated cells (*p<0.01).
(§1) Human and mouse recombinant TNFα and human recombinant GM-CSF were obtained from Boehringer Mannheim (Indianapolis, Ind.). Dulbecco's PBS (Mg^++ and Ca^++-free), RPMI-1640 and FCS were purchased from Bio Whittaker Inc. (Walkersville, Md.). Ficoll-Hypaque was from Organon Teknika Corp. (Durham, N.C.) and Hank's balanced salt solution was purchased from Gibco BRL (Grand Island, N.Y.). Serum bovine albumin, dextran, antibiotics, L-glutamine, cytochrome C, superoxide dismutase and zymosan were obtained from Sigma (St. Louis, Mo.). The assessment of human IL-1β in supernatants was performed by using an immunometric assay with acetylcholine esterase (Cayman Chemical, Ann Arbor, Mich.). Murine IL-1β was assessed using an ELISA from Endogen (Woburn, Mass.). ELISAs for IL-4 and IL-10 were from Amersham (Arlington Heights, Ill.); MIP-2 and IL-13 ELISAs were from R&D Systems (Minneapolis, Minn.). LXA4 and ATL metabolically stable analogs were prepared and characterized, including nuclear magnetic resonance spectroscopy, as in (14). Concentrations of each LX analog were determined using an extinction coefficient of 50,000 M^−1.cm^−1.just prior to each experiment. Where indicated, statistical analyses were performed using Student's non-paired t-test (two-tailed), and significance (*) was considered to be attained when P was <0.05.

Test [2] relates to human PMN. Description: TNFα-stimulated superoxide anion generation by human PMN (cytochrome C reduction). The test is classed as cell-based. As to conditions: for inhibition of TNFα-stimulated superoxide anion generation: 10 nM compound, 5 min, then TNFα 50 ng/ml. As to the method:
Human PMN were incubated with either vehicle alone or indicated concentrations of LXA4, 15 R/S-methyl-LXA4 or 16-phenoxy-LXA4 for 5 min and then with TNFα (50 ng/ml) for an additional 10 min. Values are the mean±SEM for LXA4 (n=3), 15 R/S-methyl-LXA4 (n=4) or 16-phenoxy-LXA4 (n=3).
Venous blood from healthy donors was collected using sterile conditions using acid citrate dextrose (ACD) as an anticoagulant, and PMN were isolated as in (15). PMN were suspended in cold (4° C.) Hank's medium (supplemented with 1.6 mM Ca^++, 0.1% FCS, 2 mM L-glutamine, 1% penicillin, and 2% streptomycin, pH 7.4). […] To examine superoxide production, PMN (1.0×10^6/ml) were placed at 37° C. (3 min) and then exposed to either vehicle (0.1% ethanol) or synthetic LXA4, 15R/S-methyl LXA4 or 16-phenoxy-LXA4 for 5 min at 37° C. Before adding TNFα (50 ng/ml), PMN were incubated with cytochrome C (0.7 mg/ml) for 10 min at 37° C. […] reduction of cytochrome C was terminated by rapidly placing tubes in an ice-water bath. The extent of cytochrome C reduction in each supernatant was determined at 550 nm in reference to control values obtained when superoxide dismutase was added before a stimulus or vehicle control. Cytochrome C reduction was quantitated using the extinction coefficient of 21.1/mmol/L.
TNFα, although a modest agonist of O2^−generation by human PMN, is a physiologically relevant stimulus for the generation of reactive oxygen species (ROS) by human PMN that can play critical roles in local tissue injury during both inflammation and reperfusion (Tsujii, M., S. Kawano, S. Tsuji, H. Sawaoka, M. Hori, and R. N. DuBois. 1998. Cyclooxygenase regulates angiogenesis induced by colon cancer cells. Cell 93:705-716; Shibuya, H., N. Ohkohchi, S. Tsukamoto, and S. Satomi. 1997. Tumor necrosis factor-induced, superoxide-mediated neutrophil accumulation in cold ischemic/reperfused rat liver. Hepatology 26:113-120; Jaeschke, H., A. Farhood, and C. W. Smith. 1990. Neutrophils contribute to ischemia/reperfusion injury in rat liver in vivo. FASEB J. 4:3355-3359). In FIG. 1, the impact of LXA4 and ATL related bioactive stable analogs were evaluated on TNFα stimulated superoxide anion production. […] 15R/S-methyl-LXA4 covers both LXA4 and ATL in structure, and 16-phenoxy-LXA4 is a LXA4 analog (see FIG. 1).

The test system of test [3] is PMN. Description: PMA- or FMLP-stimulated O2- production by PMN. In kind it is cell-based, human.
Test [4] deals with IL-1β. Description: IL-1β levels in supernatants of PMN incubated with TNFα, GM-CSF or zymosan. The test is classed as cell-based, human.
Excerpt: as §1, with “<0.05. […]” for “<0.05.”

Test [5] deals with IL-1β. Put plainly: IL-1β in murine air pouch exudates (ELISA). The test is classed as in vivo, BALB/c mice. As for the experimental part:
(§2) Experiments were conducted as described in FIG. 5 legend. Quantitation for IL-1β, IL-4, IL-10, IL-13 and MIP-2 was performed using ELISA with air pouch cell-free exudates. […] Changes in IL-1β, MIP-2 and IL-4 were significant at all tested time intervals (p<0.01).
as §1
(§3) Exudates from selected time intervals were collected and cell-free supernatants assessed for the presence of these murine cytokines. TNFα induced maximal detectable amounts of MIP-2 and IL-1β within 90 minutes (not shown). 15 R/S-methyl-LXA4 (25 mnoles) inhibited TNFα-stimulated MIP-2 and IL-1β release by 48% and 30% respectively (FIG. 6). […] This stimulation of IL-4 was observed both in the absence as well as presence of TNFα. Neither IL-10 nor IL-13 was detected within the pouch exudates.
On the technique in general: In an ELISA, binding on a coated surface is turned into a signal by an enzyme label.

The subject of test [6] is leukocyte infiltration. Put plainly: TNFα-induced leukocyte infiltration in murine air pouches.
Procedure: One ml of sterile PBS containing either 0.1% ethanol, TNFα, 15 R/S-methyl-LXA4, or TNFα plus 15 R/S-methyl-LXA4 was injected into the pouches, and the exudates were collected at indicated time periods. The total number of leukocytes was counted as in Materials & Methods. The results are expressed as mean±SEM from three different mice for each point.
Six to eight week old male BALB/c mice were obtained from Taconic Farms (Germantown, N.Y.). Air pouches were raised on the dorsum by s.c. injection of 3 ml of sterile air on day 0 and day 3. All experiments were conducted on day 6 (16). Individual air pouches (one per mouse) were injected with either vehicle alone (0.1% ethanol), TNFα, 15 R/S-methyl-LXA4 or TNFα plus 15 R/S-methyl-LXA4, and each was suspended in 1 ml endotoxin-free PBS immediately before injection into pouch cavities. At given intervals, the mice were sacrificed and individual air pouches were lavaged three times with sterile PBS (1 ml). The exudates were centrifuged at 2000 RPM (5 min) and the supernatants were removed. Cell pellets were suspended in PBS (200 μl) for enumeration and assessed for viability. Fifty μl of each cell suspension was mixed with 150 μl 30% BSA and then centrifuged onto microscope slides at 500 RPM for 5 min using a cytospin centrifuge, air dried, and stained with Giemsa-Wright.
Also, inflammatory exudates were collected 4 h after injection with vehicle alone, TNFα, 15 R/S-methyl-LXA4 alone, or TNFα plus 15 R/S-methyl-LXA4, and cell types were enumerated.
Test [7] concerns the target LXA4 receptor (Homo sapiens, UniProt P25090). Description: Involvement of LXA4 receptor in TNFα-stimulated IL-1β release (anti-LXA4-R antibodies).
Procedure: PMN were incubated with either IgG purified from pre-immune serum (50 μg/ml) or anti-LXA4 receptor (50 μg/ml) for 1 h at 4° C., then exposed to agonists for 12 h at 37° C. and 5% CO2. Values are expressed as mean±SD from an experiment performed in triplicate, which is representative of three distinct experiments each performed with different donors (*p<0.01).
PMN were incubated with ˜50 μg/ml of either preimmune protein-A purified IgG or IgG directed against LXA4-R for 1 h at 4° C. prior to exposure to TNFα (10 ng/ml) and 15 R/S-methyl-LXA4 (100 nM).
The subject of test [8] is IL-1β messenger RNA. Description: TNFα-triggered IL-1β gene expression in PMN (Northern blot). Particulars: 100 nM compound plus TNFα 10 ng/ml; 6 h.
Procedure: PMN were incubated with either 0.1% ethanol (vehicle) or 15 R/S-methyl-LXA4 at 10, 100, and 1000 nM, in the presence or absence of TNFα (10 ng/ml), for 6 h at 37° C. Northern blots were performed in order to detect IL-1β messenger RNA.
PMN were exposed to increasing concentrations of 15 R/S-methyl-LXA4, 16-phenoxy-LXA4 or native LXA4 in the presence of TNFα (10 ng/ml) or vehicle alone.
Test [9] concerns MIP-2. Put plainly: MIP-2 in murine air pouch exudates (ELISA). In kind it is in vivo, BALB/c mice. As to the method:
as §2, §1, §3

Test [10] deals with IL-4. Description: IL-4 in murine air pouch exudates (ELISA). Particulars: both in the absence as well as presence of TNFα. The test is classed as in vivo, BALB/c mice. As for the experimental part: as §2
as §1, with “ELISAs for IL-4 and IL-10 were from Amersham (Arlington Heights, Ill.); MIP-2 and IL-13 ELISAs were from R&D Systems (Minneapolis, Minn.). LXA4 and ATL metabolically stable analogs were prepared and characterized, including nuclear magnetic resonance spectroscopy, as in (14).” left out, “Where indicated, statistical analyses were performed using Student's non-paired t-test (two-tailed), and significance (*) was considered to be attained when P was <0.05.” left out
Exudates from selected time intervals were collected and cell-free supernatants assessed for the presence of these murine cytokines. […] Neither IL-10 nor IL-13 was detected within the pouch exudates.

Setting [11] is: 25 mnoles, air pouch exudates (FIG. 6).
The mark [12] stands for this setting: compound 25 nmoles plus TNFα 10 ng, 4 h post-injection.
Where [13] appears, read: injected alone, 4 h post-injection, TNFα 10 ng or compound 25 nmoles.

LXA4 receptor, sequence (P25090 whole entry): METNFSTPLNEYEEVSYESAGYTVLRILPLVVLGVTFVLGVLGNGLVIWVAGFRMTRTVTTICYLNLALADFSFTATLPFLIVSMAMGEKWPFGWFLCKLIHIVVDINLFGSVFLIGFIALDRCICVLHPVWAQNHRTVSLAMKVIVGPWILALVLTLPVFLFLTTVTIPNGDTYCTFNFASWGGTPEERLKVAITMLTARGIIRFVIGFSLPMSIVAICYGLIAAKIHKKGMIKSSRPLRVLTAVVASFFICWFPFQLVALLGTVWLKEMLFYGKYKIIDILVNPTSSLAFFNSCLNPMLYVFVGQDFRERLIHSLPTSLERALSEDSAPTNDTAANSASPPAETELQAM

As to `COC(=O)CCCC(O)C(O)C=CC=CC=CC=CC(O)COc1ccccc1` (stereo not drawn) [16-phenoxy-LXA4, 16 phenoxy-lipoxin A4 methyl ester], in test [1] (TNFα 10 ng/ml), the “inhibition of IL-1β release” value is recorded as “approximately 40%”. Moreover, in test [2], the “potency relative to native LXA4 as inhibitor of TNFα-stimulated superoxide generation” value is on record as “approximately three times more potent” and the “inhibition of TNFα-stimulated superoxide anion generation” value was found to be 93.7±3.2%.

In the case of `CCCCC[C@H](O)/C=C/C=C\C=C\C=C\[C@@H](O)[C@@H](O)CCCC(=O)O` (relative stereo) [LXA4, 5S, 6R, 15S-trihydroxy-7,9,13-trans-11-cis-eicosatetraenoic acid, reference compound], in [3], the “inhibition of FMLP-stimulated O2- production” value is recorded as “neither LXA4 nor its analogs inhibit”. The “inhibition of PMA-stimulated O2- production” value in test [3] (PMA 100 nM, n=3) was “neither LXA4 nor its analogs inhibit”. Also, the “inhibition of IL-1β release” value in test [1] (TNFα 10 ng/ml) is “comparable”. Moreover, the “effect on TNFα-induced IL-1β release” value in test [1] (LXA4 100 nM, TNFα 10 ng/ml, 20 h (FIG. 2A)) is given as “specifically inhibited”. Also, the “inhibition of TNFα-stimulated superoxide anion generation” value in [2] was 34.3±2.3%.

“GM-CSF: human recombinant GM-CSF, agonist of IL-1β release”: the “approximate EC50 for increase in IL-1β levels in supernatants” value in [4] (agonist GM-CSF) is reported as approximately 10 U/ml.

For `CCCCCC(C)(O)/C=C/C=C\C=C\C=C\[C@@H](O)[C@@H](O)CCCC(=O)OC` (stereo partly drawn) [15 R/S-methyl-LXA4, 15R/S-methyl-LXA4-methyl ester], in [5] (setting [11]), the “inhibition of TNFα-stimulated IL-1β release” value came to 30%. For the same molecule, in [5] (without TNFα), the “IL-1β release, compound alone in the air pouch” value was “did not stimulate”. The “time at which inhibition of leukocyte recruitment was evident” value in test [6] (25 nmoles) is reported as 1 h. Besides, the “inhibition of TNFα-stimulated recruitment of leukocytes to the air pouch” value in test [6] (25 nmoles into pouch, murine TNFα 10 ng/ml (FIG. 5)) is 62%. The “leukocyte infiltration at 8 h” value in test [6] (8 h, 25 nmoles (FIG. 5, insert)) is “remained significantly reduced”. The “reduction in leukocyte infiltration” value in test [6] (between 2 h and 4 h, 25 nmoles) is reported as “more than 60%”. For the same molecule, in test [6] (setting [12]), the “Number of leukocytes present in the pouch: Eosinophils/Basophils” value (shortened to “Number … Eosinophils/Basophils”) is reported as 0.13 ± 0.01 x 10^6, the “Number of leukocytes present in the pouch: Monocytes/Macrophages” value (“Number … Monocytes/Macrophages” below) is 0.10 ± 0.01 x 10^6, the “Number of leukocytes present in the pouch: Neutrophils” value (from here on “Number … Neutrophils”) was 0.98 ± 0.10 x 10^6 and the “Percent inhibition of TNFα-induced infiltration: Eosinophils/Basophils” value was “(56.0%)”. In [6] (setting [12]), the “Percent inhibition of TNFα-induced infiltration: Monocytes/Macrophages” value is “(50%)” and the “Percent inhibition of TNFα-induced infiltration: Neutrophils” value was “(59.1%)”. Also, in test [6] (setting [13]), the “Number … Eosinophils/Basophils” value is 0.03 ± 0.01 x 10^6, the “Number … Monocytes/Macrophages” value is reported as 0.14 ± 0.01 x 10^6 and the “Number … Neutrophils” value is 0.25 ± 0.01 x 10^6. Moreover, in test [6] (without TNFα), the “leukocyte infiltration after injection of the analog alone” value is given as “did not cause a significant leukocyte infiltration”. In test [6] (without TNFα, 4 h), the “mononuclear cell influx, compound alone” value is “small but statistically significant increase”. In [7] (100 nM compound, TNFα 10 ng/ml, 12 h (FIG. 4)), the “inhibition of IL-1β release” value is reported as “about 50%”. Besides, in [7] (100 nM compound, antibodies ~50 μg/ml), the “IL-1β appearance when added together with anti-LXA4-R antibodies in the presence of TNFα” value is recorded as “did not further inhibit IL-1β appearance”. For the same molecule, the “stimulation of IL-1β appearance within supernatants, agent alone” value in test [7] (without TNFα) is reported as “neither anti-LXA4-R antibodies nor 15 R/S-LXA4 alone stimulated significant amounts of IL-1β”. Besides, the “inhibition of TNFα-induced IL-1β release” value in test [1] (10 nM compound, TNFα 10 ng/ml (FIG. 2B)) is “clear statistically significant inhibition”. For the same molecule, in [1] (10 nM compound, more prominent after 24 h), the “time within which inhibition of IL-1β release was evident” value was not above 6 h. For the same molecule, in test [1] (TNFα 10 ng/ml), the “inhibition of IL-1β release” value is listed as “approximately 60%”. In test [8], the “decrease of IL-1β messenger RNA levels compared to TNFα alone” value was “approximately 60%”. The “inhibition of TNFα-stimulated MIP-2 release” value in [9] (setting [11]) is 48%. For the same molecule, the “MIP-2 release, compound alone in the air pouch” value in test [9] (without TNFα) was “did not stimulate”. In [2], the “potency relative to native LXA4 as inhibitor of TNFα-stimulated superoxide generation” value is given as “approximately three times more potent” and the “inhibition of TNFα-stimulated superoxide anion generation” value worked out at 81.3±14.1%. Further, the “appearance of IL-4 within the exudates” value in test [10] was “stimulated the appearance of IL-4”.

TNFα [reference compound]: in test [5] (TNFα-injected pouches), the “time to maximal detectable amounts of IL-1β” value is not above 90 min. Further, in [6] (setting [13]), the “Number … Eosinophils/Basophils” value was 0.30 ± 0.01 x 10^6, the “Number … Monocytes/Macrophages” value is 0.20 ± 0.01 x 10^6 and the “Number … Neutrophils” value is reported as 2.40 ± 0.10 x 10^6. For the same molecule, the “time of maximal accumulation of leukocytes in the air pouch” value in test [6] (murine TNFα 10 ng/ml) turned out to be 4 h. Moreover, the “time to maximal detectable amounts of MIP-2” value in test [9] (TNFα-injected pouches) is not above 90 min. In addition, in [4] (agonist TNFα), the “approximate EC50 for increase in IL-1β levels in supernatants” value is approximately 10 ng/mL.
